This note sets out measurements from patent publication US7560547B2, “Hydroxyalkyl cyclic diamine compounds” (Kowa Co., Ltd., priority 2002, dated 2009).

By melting point is commonly meant the temperature of the solid-liquid transition.

In turn, `Cc1cc(Br)c(NC(=O)CBr)c(Br)n1` [Example 3, N-[2,4-dibromo-6-methylpyridin-3-yl]-2-bromoacetamide] returned a melting point of 197 to 199 °C. With `Cc1cc(Br)c(N)c(Br)n1` [Example 2, 3-amino-2,4-dibromo-6-methylpyridine], the melting point is 93 to 94 °C. Under `Cc1cc(Cl)c(NC(=O)CBr)c(Cl)n1` [Example 5, N-[2,4-dichloro-6-methylpyridin-3-yl]-2-bromoacetamide] stands 184 to 185 °C. Molecule `Cc1cc(Br)c([N+](=O)[O-])c(Br)n1` [Example 1, 2,4-dibromo-6-methyl-3-nitropyridine] showed a melting point of 118 to 120 °C. The molecule `CSc1cc(C)nc(SC)c1NC(=O)CN1CCN(CCO)CC1` [Example 7, 2-[4-(2-hydroxyethyl)piperazin-1-yl]-N-[2,4-bis(methylthio)-6-methylpyridin-3-yl]acetamide] had a melting point of 119 to 120 °C.
